A short description of assay [1]: viability loss in HEK293T cells – cell-based, cherry-picks, cytotoxicity control for HIV Vif inhibitor project, dose response (AID 652208). In kind it is functional.
In a further assay the target is Cytochrome P450 2C9 (Homo sapiens, UniProt P11712).
In a further assay the target is Cytochrome P450 3A4 (Homo sapiens, UniProt P08684).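 Further: CYP3A4 tested as one member of a cytochrome P450 panel screen.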
A short description of assay [2]: mouse fibroblast viability loss – cell-based, cherry-pick samples, set 2, cytotoxicity control for T. cruzi growth inhibitor project, dose response (AID 651817). The class given is functional. The following applies: NIH3T3.
The nature of assay [3]: cells. In kind it is functional, cell-based. The following applies: HEK-CNG.
The target of another assay is Galanin receptor type 3 (Homo sapiens, UniProt O60755). As to the kind of experiment: Fluorescence-based cell-based primary high throughput dose response assay to identify antagonists of the Galanin Receptor 3 (GalR3). In kind it is functional.
Assay [4] in a line: T. cruzi growth inhibition in host cells, dose response, cell-based, plate reader, dry powder, set 2 (AID 652275). In kind it is functional.
The target in assay [5] is T1, Beta-lactamase (Pseudomonas aeruginosa, UniProt Q79MP6). As to the kind of experiment: […] counterscreen for selective VIM-2 inhibitors: dose response biochemical high throughput screening assay to identify inhibitors of IMP-1 metallo-beta-lactamase. In general terms: A counterscreen serves to expose hits that act by an unwanted route or on another target.
In a further assay the target is T2, Aminopeptidase N (Plasmodium falciparum FcB1/Columbia, UniProt O96935).
T2 sequence (O96935 whole entry): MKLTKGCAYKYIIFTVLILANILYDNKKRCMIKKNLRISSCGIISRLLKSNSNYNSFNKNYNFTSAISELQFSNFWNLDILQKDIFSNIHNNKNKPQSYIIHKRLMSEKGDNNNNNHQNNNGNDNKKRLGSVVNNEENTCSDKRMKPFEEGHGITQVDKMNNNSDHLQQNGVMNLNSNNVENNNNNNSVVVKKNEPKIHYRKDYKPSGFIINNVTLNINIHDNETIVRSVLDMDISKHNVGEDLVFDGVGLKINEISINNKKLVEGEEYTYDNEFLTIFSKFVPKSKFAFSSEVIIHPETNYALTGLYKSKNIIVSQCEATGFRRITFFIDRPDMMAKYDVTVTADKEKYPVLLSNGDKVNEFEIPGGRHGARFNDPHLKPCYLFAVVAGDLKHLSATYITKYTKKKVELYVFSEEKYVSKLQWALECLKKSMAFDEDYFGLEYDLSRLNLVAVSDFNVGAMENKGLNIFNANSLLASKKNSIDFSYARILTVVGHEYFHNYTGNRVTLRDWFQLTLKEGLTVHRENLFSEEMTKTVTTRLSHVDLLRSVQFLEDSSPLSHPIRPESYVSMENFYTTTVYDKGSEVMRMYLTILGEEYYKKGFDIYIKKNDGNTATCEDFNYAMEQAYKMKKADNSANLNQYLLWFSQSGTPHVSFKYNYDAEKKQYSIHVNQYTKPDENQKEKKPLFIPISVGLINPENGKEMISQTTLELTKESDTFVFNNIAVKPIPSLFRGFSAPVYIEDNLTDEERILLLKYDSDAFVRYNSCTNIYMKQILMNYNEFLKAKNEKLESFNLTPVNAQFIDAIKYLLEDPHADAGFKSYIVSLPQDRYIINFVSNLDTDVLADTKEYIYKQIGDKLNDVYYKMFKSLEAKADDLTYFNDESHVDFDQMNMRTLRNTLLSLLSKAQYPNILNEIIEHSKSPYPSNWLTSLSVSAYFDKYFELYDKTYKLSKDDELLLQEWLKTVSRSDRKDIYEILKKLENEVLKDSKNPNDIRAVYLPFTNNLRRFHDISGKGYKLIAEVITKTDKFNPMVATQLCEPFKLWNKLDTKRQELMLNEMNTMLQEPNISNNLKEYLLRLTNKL
As to the kind of experiment: malaria alanyl aminopeptidase activity blockers – biochemical, fluorogenic H-Leu-NHMec substrate, 1536-well (AID 1445). The arrangement: species or system Plasmodium falciparum 3D7, 3D7.

Assay [6] concerns the target Beta-lactamase (Salmonella choleraesuis (strain SC-B67), UniProt Q5J463). As to the kind of experiment: Epi-absorbance-based counterscreen for selective VIM-2 inhibitors: dose response biochemical high throughput screening assay to identify inhibitors of TEM-1 serine-beta-lactamase.
The next assay addresses T3, Cysteine protease ATG4B (Homo sapiens, UniProt Q9Y4P1).
T3 sequence (Q9Y4P1 whole entry): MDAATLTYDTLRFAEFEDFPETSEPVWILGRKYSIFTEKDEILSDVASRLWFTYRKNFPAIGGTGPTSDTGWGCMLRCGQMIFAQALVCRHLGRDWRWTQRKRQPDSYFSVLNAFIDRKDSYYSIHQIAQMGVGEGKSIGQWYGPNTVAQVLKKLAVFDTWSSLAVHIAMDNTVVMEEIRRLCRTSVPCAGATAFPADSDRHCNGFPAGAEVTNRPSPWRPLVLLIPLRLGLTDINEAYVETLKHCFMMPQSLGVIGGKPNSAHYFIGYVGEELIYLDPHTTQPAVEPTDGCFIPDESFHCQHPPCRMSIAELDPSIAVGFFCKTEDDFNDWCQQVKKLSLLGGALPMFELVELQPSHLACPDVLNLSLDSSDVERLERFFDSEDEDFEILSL
In kind it is functional.

Assay [7] has as its target T1, Beta-lactamase. Put plainly: inhibition of IMP-1 beta-lactamase activity – biochemical, epi-absorbance, selectivity assay for VIM-2 inhibitor project, dose response (AID 1920).
A further assay addresses Phospholipase A2 (Homo sapiens, UniProt P04054). The class given is functional.
Assay [8] can be described thus: CMV-driven luciferase expression suppression in HEK293 – cell-based, luminescence, dry powder, counter-screen for Pax8 inhibitor project, dose response (AID 743020). In kind it is functional.
The next assay has as its system Vero. Put plainly: viability loss in Vero cells – cell-based, plate reader, cherry-pick samples, cytotoxicity control, dose response (AID 687020). Conditions: Chlorocebus sabaeus. The class given is functional.
Assay [9] deals with T4, Low molecular weight phosphotyrosine protein phosphatase (Homo sapiens, UniProt P24666).
T4 sequence (P24666 whole entry): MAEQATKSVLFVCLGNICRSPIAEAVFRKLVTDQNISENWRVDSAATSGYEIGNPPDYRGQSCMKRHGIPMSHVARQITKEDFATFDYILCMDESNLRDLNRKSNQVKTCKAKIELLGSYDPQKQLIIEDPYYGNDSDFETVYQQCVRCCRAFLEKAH
The class given is functional. Conditions: read-out: IC50_Mean.

Assay [10] is described as follows: Luminescence Cell-Based Dose Confirmation HTS to Identify Activators of 5'UTR Stem-Loop Driven Alpha-Synuclein mRNA Translation in H4 Neuroglioblastoma Cells. [Related pubchem assays: 1829 (Project Summary), 1814 (Primary HTS)]. In kind it is functional.
Assay [11] is described as follows: Luminescence Cell-Based Dose Response HTS to Identify Activators of Luciferase Translation or Activity in H4 […] Cells. [Related pubchem assays: 1829 (Project Summary), 1814 (Primary HTS)]. The class given is functional.
The subject of another assay is H4. As to the kind of experiment: Luminescence Cell-Based Dose Response HTS to Identify Activators of 5'UTR Stem-Loop Driven Prion Protein mRNA Translation in H4 Neuroglioblastoma Cells. [Related pubchem assays: 1829 (Project Summary), 1814 (Primary HTS)]. The following applies: Homo sapiens. In kind it is functional.
The target in assay [12] is T4, Low molecular weight phosphotyrosine protein phosphatase. The class given is functional. Conditions: read-out: IC50_Mean. The source holds these as a separate data set.
Assay [13] deals with T5, DNA repair and recombination protein RAD54-like (Homo sapiens, UniProt Q92698).
T5 sequence (Q92698 whole entry): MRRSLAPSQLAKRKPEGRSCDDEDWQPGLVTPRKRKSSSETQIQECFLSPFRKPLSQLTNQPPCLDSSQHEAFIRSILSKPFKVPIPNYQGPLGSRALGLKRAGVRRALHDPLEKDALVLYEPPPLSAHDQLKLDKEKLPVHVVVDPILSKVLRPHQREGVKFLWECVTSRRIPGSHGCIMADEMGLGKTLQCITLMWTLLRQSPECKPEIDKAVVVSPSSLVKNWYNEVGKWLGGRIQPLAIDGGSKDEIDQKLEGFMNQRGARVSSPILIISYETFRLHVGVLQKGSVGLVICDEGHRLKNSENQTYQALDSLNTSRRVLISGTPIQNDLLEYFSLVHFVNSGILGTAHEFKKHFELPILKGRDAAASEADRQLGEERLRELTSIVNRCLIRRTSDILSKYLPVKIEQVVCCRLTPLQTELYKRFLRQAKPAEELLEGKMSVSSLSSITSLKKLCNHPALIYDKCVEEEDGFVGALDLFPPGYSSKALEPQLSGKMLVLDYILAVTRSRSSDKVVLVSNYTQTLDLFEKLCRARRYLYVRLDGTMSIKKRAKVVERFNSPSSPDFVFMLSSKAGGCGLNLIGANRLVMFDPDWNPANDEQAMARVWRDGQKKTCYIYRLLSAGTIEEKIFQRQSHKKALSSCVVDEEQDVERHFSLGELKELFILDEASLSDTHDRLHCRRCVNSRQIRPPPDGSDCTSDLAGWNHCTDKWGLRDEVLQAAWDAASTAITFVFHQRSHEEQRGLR
Put plainly: RAD54 Holliday junction migration blockers – biochemical, fluorescence, cherry-picked samples, dose series, confirmation (AID 651657). In kind it is functional.

Another assay deals with Beta-galactosidase (Escherichia coli, UniProt Q8VNN2). As to the kind of experiment: Dose response counterscreen for EBI2 assay utilizing the enzyme, b-galactosidase. The class given is functional.
Assay [14] concerns the target Peroxisome proliferator-activated receptor gamma/Nuclear receptor coactivator 3 (Homo sapiens, UniProt P37231). Put plainly: TR-FRET dose response biochemical High Throughput Screening assay for agonists of the steroid receptor coactivator 3 (SRC-3) recruitment by the peroxisome proliferator-activated receptor gamma (PPAR gamma): non-selective agonists. [Related pubchem assays: 1301 (Confirmation screen.), 1048 (Primary screen.)]. The class given is functional.

For assay [15], the target named is Peroxisome proliferator-activated receptor gamma/Nuclear receptor coactivator 1 (Homo sapiens, UniProt P37231). Put plainly: TR-FRET dose response biochemical High Throughput Screening assay for agonists of the steroid receptor coactivator 1 (SRC-1) recruitment by the peroxisome proliferator-activated receptor gamma (PPAR gamma): non-selective agonists. [Related pubchem assays (depositor defined):AID1300, AID1808, AID504735, AID631]. In kind it is protein assay.

The target in assay [16] is Peroxisome proliferator-activated receptor gamma/Nuclear receptor coactivator 2 (Homo sapiens, UniProt P37231). Put plainly: TR-FRET dose response biochemical High Throughput Screening assay for agonists of the steroid receptor coactivator 2 (SRC-2) recruitment by the peroxisome proliferator-activated receptor gamma (PPAR gamma): non-selective agonists. [Related pubchem assays: 1297, 1032 ]. In kind it is functional.

Assay [17] can be described thus: cells. The class given is functional, cell-based.
Assay [18] can be described thus: cells. The class given is functional, cell-based. The source holds these as a separate data set.

These results are taken from ChEMBL document CHEMBL1201862, “PubChem BioAssay data set” (2004).

Activity calls are given as the source filed them. Where only a bound is given, the exact number is not on record here.

T1 sequence (Q79MP6 whole entry): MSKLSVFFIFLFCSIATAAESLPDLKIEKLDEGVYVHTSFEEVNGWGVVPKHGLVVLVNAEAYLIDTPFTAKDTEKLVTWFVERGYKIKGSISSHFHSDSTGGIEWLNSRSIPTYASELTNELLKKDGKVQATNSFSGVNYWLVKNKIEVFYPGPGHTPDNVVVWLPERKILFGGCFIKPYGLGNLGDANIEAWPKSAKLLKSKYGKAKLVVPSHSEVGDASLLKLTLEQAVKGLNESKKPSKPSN
Beta-lactamase (Salmonella choleraesuis (strain SC-B67), UniProt Q5J463), sequence (Q5J463 whole entry): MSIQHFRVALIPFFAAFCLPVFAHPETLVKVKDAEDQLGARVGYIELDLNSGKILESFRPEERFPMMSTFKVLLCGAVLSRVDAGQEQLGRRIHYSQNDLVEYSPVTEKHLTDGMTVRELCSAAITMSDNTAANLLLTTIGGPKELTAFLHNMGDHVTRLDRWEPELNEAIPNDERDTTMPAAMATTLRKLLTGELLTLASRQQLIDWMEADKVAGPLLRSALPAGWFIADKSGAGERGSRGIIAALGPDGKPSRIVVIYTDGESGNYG
Beta-galactosidase, sequence (Q8VNN2 whole entry): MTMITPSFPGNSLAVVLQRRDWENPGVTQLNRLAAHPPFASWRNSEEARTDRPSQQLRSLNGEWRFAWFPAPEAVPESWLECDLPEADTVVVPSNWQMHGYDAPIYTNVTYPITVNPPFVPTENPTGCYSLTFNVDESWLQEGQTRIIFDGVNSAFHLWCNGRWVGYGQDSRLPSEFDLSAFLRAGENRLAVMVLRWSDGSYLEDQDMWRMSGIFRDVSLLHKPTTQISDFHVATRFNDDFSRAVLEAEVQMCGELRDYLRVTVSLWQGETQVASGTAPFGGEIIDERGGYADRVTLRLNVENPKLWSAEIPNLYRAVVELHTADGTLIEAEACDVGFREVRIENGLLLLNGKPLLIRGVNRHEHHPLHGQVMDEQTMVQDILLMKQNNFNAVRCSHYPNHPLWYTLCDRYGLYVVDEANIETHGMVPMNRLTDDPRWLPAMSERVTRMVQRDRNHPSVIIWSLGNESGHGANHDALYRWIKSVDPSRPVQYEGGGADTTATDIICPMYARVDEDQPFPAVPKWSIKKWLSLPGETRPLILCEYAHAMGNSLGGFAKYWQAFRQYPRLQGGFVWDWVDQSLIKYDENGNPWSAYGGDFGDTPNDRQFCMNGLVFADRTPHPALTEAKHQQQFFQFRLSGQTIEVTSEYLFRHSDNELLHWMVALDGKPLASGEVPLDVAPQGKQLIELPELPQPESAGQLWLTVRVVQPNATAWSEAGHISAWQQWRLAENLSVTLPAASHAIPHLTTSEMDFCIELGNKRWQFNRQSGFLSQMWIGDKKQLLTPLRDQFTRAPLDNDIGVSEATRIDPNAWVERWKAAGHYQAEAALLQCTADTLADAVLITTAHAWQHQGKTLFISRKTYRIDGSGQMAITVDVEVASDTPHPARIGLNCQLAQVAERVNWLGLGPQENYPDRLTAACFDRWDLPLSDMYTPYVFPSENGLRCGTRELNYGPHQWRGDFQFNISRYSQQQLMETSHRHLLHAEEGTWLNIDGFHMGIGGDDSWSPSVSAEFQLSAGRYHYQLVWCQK
Cytochrome P450 2C9, sequence (P11712 whole entry): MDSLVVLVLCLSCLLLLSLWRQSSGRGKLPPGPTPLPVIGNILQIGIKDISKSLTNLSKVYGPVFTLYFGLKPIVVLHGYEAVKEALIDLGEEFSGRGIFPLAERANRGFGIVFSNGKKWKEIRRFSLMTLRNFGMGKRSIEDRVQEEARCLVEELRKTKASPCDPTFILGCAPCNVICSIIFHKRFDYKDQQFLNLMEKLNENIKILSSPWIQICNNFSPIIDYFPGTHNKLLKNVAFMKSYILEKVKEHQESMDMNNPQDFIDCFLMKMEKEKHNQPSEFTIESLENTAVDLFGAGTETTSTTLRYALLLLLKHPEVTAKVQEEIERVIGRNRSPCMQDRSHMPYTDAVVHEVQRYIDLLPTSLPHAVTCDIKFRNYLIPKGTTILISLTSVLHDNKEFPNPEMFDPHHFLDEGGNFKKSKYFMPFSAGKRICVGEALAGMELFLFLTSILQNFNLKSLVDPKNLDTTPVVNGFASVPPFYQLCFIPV
Peroxisome proliferator-activated receptor gamma/Nuclear receptor coactivator 3, sequence (P37231 whole entry): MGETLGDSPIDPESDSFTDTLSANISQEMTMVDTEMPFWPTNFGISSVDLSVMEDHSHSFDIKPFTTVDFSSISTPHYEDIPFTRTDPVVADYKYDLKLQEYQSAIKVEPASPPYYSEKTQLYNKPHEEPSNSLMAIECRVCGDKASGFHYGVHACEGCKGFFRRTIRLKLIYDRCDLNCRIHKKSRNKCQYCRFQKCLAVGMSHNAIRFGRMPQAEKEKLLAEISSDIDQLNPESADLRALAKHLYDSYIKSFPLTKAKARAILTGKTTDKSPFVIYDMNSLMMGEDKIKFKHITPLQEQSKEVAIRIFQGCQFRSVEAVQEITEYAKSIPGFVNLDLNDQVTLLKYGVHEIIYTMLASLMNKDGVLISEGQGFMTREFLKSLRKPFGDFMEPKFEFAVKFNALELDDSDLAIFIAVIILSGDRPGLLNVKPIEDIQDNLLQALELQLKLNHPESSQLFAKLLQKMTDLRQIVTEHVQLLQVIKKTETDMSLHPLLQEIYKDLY
Peroxisome proliferator-activated receptor gamma/Nuclear receptor coactivator 3, sequence (Q9Y6Q9 whole entry, further chain): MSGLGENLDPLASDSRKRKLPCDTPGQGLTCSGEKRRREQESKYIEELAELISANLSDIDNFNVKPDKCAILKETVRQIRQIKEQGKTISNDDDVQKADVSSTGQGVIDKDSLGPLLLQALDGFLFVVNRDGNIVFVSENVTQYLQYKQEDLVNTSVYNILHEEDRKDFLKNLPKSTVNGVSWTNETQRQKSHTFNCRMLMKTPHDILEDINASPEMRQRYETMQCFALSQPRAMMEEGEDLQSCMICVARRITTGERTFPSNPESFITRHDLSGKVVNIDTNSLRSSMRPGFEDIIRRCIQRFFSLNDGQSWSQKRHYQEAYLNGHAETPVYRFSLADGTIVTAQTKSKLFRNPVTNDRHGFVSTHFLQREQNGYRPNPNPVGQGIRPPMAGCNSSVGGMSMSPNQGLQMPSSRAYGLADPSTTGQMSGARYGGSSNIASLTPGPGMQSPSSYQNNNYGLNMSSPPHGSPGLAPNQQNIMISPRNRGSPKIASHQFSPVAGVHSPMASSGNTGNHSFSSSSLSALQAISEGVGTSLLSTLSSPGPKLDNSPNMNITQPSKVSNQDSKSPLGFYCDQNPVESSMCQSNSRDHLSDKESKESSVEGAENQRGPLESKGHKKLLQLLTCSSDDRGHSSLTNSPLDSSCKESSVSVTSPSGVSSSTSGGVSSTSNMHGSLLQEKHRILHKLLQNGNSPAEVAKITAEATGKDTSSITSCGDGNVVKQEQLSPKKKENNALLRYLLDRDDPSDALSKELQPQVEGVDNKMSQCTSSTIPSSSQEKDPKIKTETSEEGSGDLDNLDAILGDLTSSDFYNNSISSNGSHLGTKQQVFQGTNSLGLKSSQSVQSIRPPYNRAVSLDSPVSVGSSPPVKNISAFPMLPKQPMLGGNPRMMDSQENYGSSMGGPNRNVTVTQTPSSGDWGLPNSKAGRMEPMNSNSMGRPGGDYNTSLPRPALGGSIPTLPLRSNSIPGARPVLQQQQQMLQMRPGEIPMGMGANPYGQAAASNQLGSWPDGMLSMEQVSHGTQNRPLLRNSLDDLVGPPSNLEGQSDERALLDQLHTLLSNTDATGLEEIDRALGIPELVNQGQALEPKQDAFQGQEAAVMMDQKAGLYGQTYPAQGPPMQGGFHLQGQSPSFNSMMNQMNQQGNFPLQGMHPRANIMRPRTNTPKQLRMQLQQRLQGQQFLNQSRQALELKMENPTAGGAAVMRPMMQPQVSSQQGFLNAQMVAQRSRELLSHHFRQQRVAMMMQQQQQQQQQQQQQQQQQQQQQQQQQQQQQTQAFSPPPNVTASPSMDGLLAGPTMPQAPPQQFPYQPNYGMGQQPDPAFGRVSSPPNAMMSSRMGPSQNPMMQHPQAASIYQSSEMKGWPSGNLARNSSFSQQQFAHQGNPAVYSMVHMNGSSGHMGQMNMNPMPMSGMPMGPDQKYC
Galanin receptor type 3, sequence (O60755 whole entry): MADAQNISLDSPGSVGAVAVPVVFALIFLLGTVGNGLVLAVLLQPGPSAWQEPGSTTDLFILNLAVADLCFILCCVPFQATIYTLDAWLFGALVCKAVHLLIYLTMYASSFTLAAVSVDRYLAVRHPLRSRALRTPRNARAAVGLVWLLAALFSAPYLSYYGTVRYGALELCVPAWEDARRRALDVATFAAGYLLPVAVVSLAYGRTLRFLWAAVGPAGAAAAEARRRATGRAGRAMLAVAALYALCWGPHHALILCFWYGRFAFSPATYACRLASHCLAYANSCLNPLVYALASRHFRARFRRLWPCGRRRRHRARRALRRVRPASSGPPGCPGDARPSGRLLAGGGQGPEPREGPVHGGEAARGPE
Cytochrome P450 3A4, sequence (P08684 whole entry): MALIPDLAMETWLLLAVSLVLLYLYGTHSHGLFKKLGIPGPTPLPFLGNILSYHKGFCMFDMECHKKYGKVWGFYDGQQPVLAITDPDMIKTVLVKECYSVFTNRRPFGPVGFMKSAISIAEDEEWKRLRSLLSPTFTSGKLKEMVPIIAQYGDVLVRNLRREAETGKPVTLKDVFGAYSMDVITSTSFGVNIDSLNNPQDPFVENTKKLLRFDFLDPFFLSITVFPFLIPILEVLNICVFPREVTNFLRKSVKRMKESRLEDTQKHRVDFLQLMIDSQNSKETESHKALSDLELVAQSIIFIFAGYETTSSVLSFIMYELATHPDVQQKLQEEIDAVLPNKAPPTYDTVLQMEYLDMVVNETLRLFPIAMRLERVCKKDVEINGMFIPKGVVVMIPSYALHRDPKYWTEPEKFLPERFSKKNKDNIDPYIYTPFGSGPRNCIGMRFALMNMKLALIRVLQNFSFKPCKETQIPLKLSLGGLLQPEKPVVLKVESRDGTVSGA
Phospholipase A2, sequence (P04054 whole entry): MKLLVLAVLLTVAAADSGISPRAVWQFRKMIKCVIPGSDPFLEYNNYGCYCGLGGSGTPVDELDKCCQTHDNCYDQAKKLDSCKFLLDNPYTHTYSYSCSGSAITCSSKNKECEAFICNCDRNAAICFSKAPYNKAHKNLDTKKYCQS

Consider `CCCc1cc(=O)oc2cc(OCc3cc(OC)c(OC)c(OC)c3)c(Cl)cc12`, for which the AC50 in assay [1] was > 52 µM (inactive); at Cytochrome P450 2C9, 1 µM (inconclusive); at Cytochrome P450 3A4, 3.55 µM (inconclusive).

As for `C[C@@H]1CN([C@@H](C)CO)C(=O)c2cccc(NC(=O)c3ccncc3)c2O[C@@H]1CN(C)Cc1ccccc1`, in [2], the AC50 is 39 µM (inactive).

As to `COc1ccc(CN2CCC(C(=O)Nc3ccc(Oc4ccccc4)nc3)CC2)cc1F`, in “cells [3]”, the EC50 was > 29.9 µM (inactive). In addition, at Galanin receptor type 3, the IC50 was 3.56 µM (active).

In the case of `C[C@H]1CN([C@@H](C)CO)C(=O)c2cccc(NC(=O)c3nc4ccccc4s3)c2O[C@@H]1CN(C)Cc1ccc2c(c1)OCO2`, the AC50 in assay [2] was 9.31 µM (active).

On to `CC(C)N1C[C@@H](CN(C)Cc2ccc(Cl)cc2)Oc2c(NC(=O)c3ccncc3)cccc2C1=O`, for which, in [4], the AC50 was 0.0045 µM (active).

Turning to `Cc1cc(OCc2cc(C(=O)O)oc2C)c2c3c(c(=O)oc2c1)CCCC3`, the IC50 on Beta-lactamase [5] is > 59.6 µM (inactive); at Aminopeptidase N, 66.4 µM (active); on Beta-lactamase [6], > 59.6 µM (inactive); on Cysteine protease ATG4B it was 17.3 µM (active); on Beta-lactamase [7], > 59.6 µM (inactive); at Phospholipase A2 it was 13.5 µM (active).

In the case of `CC1CCN(CCOc2ccc(OCc3ccccc3)cc2)CC1`, the AC50 in assay [8] was < 9.29 µM (active); in the assay with Vero, 25.9 µM (active).

As for `O=C(CN1CCC(O)(c2cccc(C(F)(F)F)c2)CC1)NCCc1ccccc1`, in the assay with Vero, the AC50 was 11.6 µM (active).

Turning to `Cc1ccc(-c2nc(NCCN3CCOCC3)c3ccccc3n2)cc1`, the IC50 in assay [9] is 16 µM (active); in [12], 30.7 µM (inactive). Further, the EC50 in assay [10] was 56.3 µM (active); in [11] it was 21.1 µM (active); in the assay on H4 it was 16.9 µM (active). Further, the AC50 in [13] is 24.8 µM (active).

For the compound `CO/N=C/c1ccc(Oc2ccc(C)cc2)nc1`, the IC50 on Beta-galactosidase is > 80 µM (inactive).

For the compound `Cc1cc(C(=O)OCC(=O)NC(=O)c2cccn2C)c2ccccc2n1`, the IC50 on Beta-lactamase [5], on Beta-lactamase [6] and on Beta-lactamase [7] was > 59.6 µM (inactive) in each case.

For the compound `CNC(=S)N1N=C(c2ccc(Br)cc2)CC1c1ccc(OC)cc1` (stereo not drawn), the EC50 in assay [14] is 49.9 µM (not active); in assay [15] it was 14.5 µM (inactive); in assay [16], 17.3 µM (not active). Also, at Beta-galactosidase, the IC50 is > 80 µM (inactive).

For the compound `O=C(Nc1ccccc1)Nc1nncs1`, the IC50 in “cells [17]” is > 29.9 µM (inactive). The EC50 in the assay “cells [18]” is > 29.9 µM (inactive).

Broadly, the AC50 is the concentration at which the activity in the assay is half-maximal. Broadly, the EC50 is the concentration giving half of the maximal effect.
